The numbers were not newly measured in paper PMC12679585, “Design, synthesis, and characterization of novel 5-ethylsulfonyl-indazole-3-carboxamides as dual VEGFR-2 and EGFR inhibitors: apoptotic antiproliferative and immunomodulatory evaluations” (RSC Advances, 2025), which cites them from elsewhere.

The target in the data set is EGFR (Homo sapiens, UniProt P00533). Further details: 645–1186; His6 (N); made in house; host or cells: Sf-9 insect cells (baculovirus; vectors pBlueBacHis2B and pFASTBacHTc); method as in PMID 35667253. As to conditions: cited from earlier work.
Chain of EGFR (P00533 669-1210): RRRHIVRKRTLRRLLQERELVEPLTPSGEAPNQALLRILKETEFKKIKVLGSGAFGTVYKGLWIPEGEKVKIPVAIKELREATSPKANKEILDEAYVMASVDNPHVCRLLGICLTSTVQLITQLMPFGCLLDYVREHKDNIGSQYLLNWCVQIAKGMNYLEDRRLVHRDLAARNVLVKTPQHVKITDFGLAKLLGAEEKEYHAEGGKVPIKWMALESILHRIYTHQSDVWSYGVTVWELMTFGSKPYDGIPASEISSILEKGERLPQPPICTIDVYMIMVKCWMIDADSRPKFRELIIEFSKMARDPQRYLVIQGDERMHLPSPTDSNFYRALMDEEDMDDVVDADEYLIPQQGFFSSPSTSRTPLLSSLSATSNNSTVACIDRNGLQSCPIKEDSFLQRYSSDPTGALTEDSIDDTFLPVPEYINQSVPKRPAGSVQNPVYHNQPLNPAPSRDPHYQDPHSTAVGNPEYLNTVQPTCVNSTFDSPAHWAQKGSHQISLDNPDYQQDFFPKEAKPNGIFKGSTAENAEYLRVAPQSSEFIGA

Regarding `CC(=O)Nc1ccc(/C(N)=N/OC(=O)c2ccc3cn[nH]c3c2)cc1` [Compound XIII], the IC50 (commonly the point on the concentration scale where inhibition reaches its midpoint) is 85 ± 5 nM.
